Results on three molecules are retold here after patent US12049439B2 (OrsoBio, Inc., priority 2018, dated 2024).

This experiment has as its system PC-3 cells. The experiment can be described thus: PC-3 Oxygen Rate Consumption (OCR) Assay. To be noted: Homo sapiens, 0.05 h, medium with 2% FBS, OCR at 3-min post-injection normalized to % increase over DMSO-treated cells, concentration for half-maximal OCR increase, read-out: EC50-PC3-OCR-FBS-3min. In kind it is cell-based. In short, it runs like this: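 Oxygen consumption read on Seahorse XFe96: three basal measurements, then compound injection and 10 cycles over 30 min. EC50 defined as concentration giving half-maximal OCR rise, using 3-min post-injection values as % above DMSO controls, six replicates per treatment, in PC-3 cells in glucose/pyruvate medium.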
For orientation: EC50 means the concentration giving half of the maximal effect. Turning to `CS(=O)(=O)N1C2CCC1CN(S(=O)(=O)Nc1ccc(C(F)(F)F)cc1C(=O)NC13CCC(C#N)(CC1)CC3)C2` [Example 246, N-(4-cyanobicyclo[2.2.2]octan-1-yl)-2-(((1R,5S)-8-(methylsulfonyl)-3,8-diazabicyclo[3.2.1]octane)-3-sulfonamido)-5-(trifluoromethyl)benzamide], the concentration giving a half-maximal response (EC50) stood at 14.5 µM.

With `N#Cc1ccc(C(=O)NC23CC(C(F)(F)F)(C2)C3)c(NS(=O)(=O)N2CCC2)c1` [Example 247, 2-(azetidine-1-sulfonamido)-4-cyano-N-(3-(trifluoromethyl)bicyclo[1.1.1]pentan-1-yl)benzamide], the EC50 was 4.79 µM.

On to `CS(=O)(=O)CCS(=O)(=O)Nc1cc(OC(F)(F)F)ccc1C(=O)NC12CCC(C(F)(F)F)(CC1)CC2` [Example 248, 2-((2-(methylsulfonyl)ethyl)sulfonamido)-4-(trifluoromethoxy)-N-(4-(trifluoromethyl)bicyclo[2.2.2]octan-1-yl)benzamide], for which the EC50 stood at 5.7 µM.
